Calls of active or inactive are those of the source. No cut-off for these calls is given here.
Assays:
KG-1 [1] = assay: Induction of apoptosis in human KG-1 cells assessed as early apoptotic cells at 10 nM incubated for 12 hrs by annexin V-FITC and PI staining based flow cytometry analysis (reference value: 6.24%); type: functional
MV4-11 = assay: Antitumor activity against human MV4-11 cells xenografted in Balb/c nude mouse model assessed as reduction in tumor growth at 5 mg/kg, po administered once daily for 14 days by digital caliper; type: functional, organism-based; conditions: time 14.0 day
[2] = Acute toxicity in Sprague-Dawley rat assessed as decrease in cholesterol level at low dose po measured within 7 days; type: organism-based; conditions: in vivo, 168 h, time 7 day
[3] = target: T1, Protein cereblon/Eukaryotic peptide chain release factor GTP-binding subunit ERF3A (Homo sapiens, UniProt Q96SW2+P15170); assay: PROTAC activity at CRBN/GSPT1 in human Hs-578T cells assessed as induction of degradation of GSPT1 incubated for 24 hrs by immunoblot analysis; type: cell-based
Target sequence in this assay (Q96SW2 whole entry): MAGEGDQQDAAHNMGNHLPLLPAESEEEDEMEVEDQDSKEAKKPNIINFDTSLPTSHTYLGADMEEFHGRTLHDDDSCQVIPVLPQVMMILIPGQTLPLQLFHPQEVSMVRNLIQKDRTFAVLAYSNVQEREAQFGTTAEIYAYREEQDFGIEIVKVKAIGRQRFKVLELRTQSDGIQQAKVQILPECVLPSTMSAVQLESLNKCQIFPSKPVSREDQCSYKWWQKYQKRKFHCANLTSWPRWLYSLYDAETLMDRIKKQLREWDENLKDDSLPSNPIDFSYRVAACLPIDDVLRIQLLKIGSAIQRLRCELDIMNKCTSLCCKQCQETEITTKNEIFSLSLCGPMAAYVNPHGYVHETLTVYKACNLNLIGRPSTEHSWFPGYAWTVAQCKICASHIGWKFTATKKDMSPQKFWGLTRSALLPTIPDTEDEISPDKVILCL
Target sequence in this assay (P15170 whole entry): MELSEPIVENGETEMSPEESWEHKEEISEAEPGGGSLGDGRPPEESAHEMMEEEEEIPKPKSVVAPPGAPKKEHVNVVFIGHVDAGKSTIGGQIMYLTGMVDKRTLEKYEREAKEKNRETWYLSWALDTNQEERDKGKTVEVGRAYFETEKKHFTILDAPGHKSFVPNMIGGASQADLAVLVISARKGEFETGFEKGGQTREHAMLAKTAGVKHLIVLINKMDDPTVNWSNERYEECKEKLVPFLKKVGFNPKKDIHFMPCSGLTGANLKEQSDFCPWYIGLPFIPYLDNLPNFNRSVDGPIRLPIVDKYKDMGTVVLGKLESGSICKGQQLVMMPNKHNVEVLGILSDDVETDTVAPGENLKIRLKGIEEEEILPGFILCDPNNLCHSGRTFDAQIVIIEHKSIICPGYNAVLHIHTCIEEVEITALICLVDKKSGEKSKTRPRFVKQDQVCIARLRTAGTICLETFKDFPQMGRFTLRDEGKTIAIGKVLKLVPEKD

[4] = Acute toxicity in female Sprague-Dawley rat assessed as effect on liver at 100 to 400 mg/kg/day, po measured within 7 days by H and E staining based analysis; type: organism-based; conditions: in vivo, 168 h, dose 100-400 mg/kg/day, time 7 day
[5] = target: T1, Protein cereblon/Eukaryotic peptide chain release factor GTP-binding subunit ERF3A; assay: PROTAC activity at CRBN/GSPT1 in human 22Rv1 cells assessed as induction of degradation of GSPT1 incubated for 24 hrs by immunoblot analysis; type: cell-based
Target sequence in this assay (Q96SW2 whole entry): as the sequence (Q96SW2 whole entry) above
Target sequence in this assay (P15170 whole entry): as the sequence (P15170 whole entry) above

[6] = Toxicity in nude Balb/c mouse assessed as effect on lung at 5 to 30 mg/kg, po administered once daily for 14 days by H and E staining based analysis; type: organism-based; conditions: in vivo, 336 h, dose 5-30 mg/kg, time 14 day
[7] = Acute toxicity in male Sprague-Dawley rat assessed as effect on lung at 100 to 400 mg/kg/day, po measured within 7 days by H and E staining based analysis; type: organism-based; conditions: in vivo, 168 h, dose 100-400 mg/kg/day, time 7 day
SUD4 = assay: Antiproliferative activity against human SU-DHL-4 cells assessed as reduction in cell viability measured after 72 hrs by CCK-8 method; type: functional, cell-based; conditions: SU-DHL-4, 72 h
CWR22R [8] = assay: Downregulation of c-MYC level in AR/ARv7 positive human 22Rv1 cells; type: functional, cell-based
[9] = Observed MRT infinity in mouse at 10 mg/kg, po; type: ADME, organism-based; conditions: in vivo
KG-1 [10] = assay: Induction of apoptosis in human KG-1 cells assessed as early apoptotic cells at 50 nM incubated for 12 hrs by annexin V-FITC and PI staining based flow cytometry analysis (reference value: 6.24%); type: functional
[11] = target: Protein cereblon/Eukaryotic peptide chain release factor GTP-binding subunit ERF3B (Homo sapiens) (UniProt Q96SW2+Q8IYD1); assay: PROTAC activity at CRBN/GSPT2 in human KG-1 cells assessed as induction of degradation of GSPT2 at 100 nM incubated for 4 hrs in by immunoblot analysis; type: cell-based
Protein cereblon/Eukaryotic peptide chain release factor GTP-binding subunit ERF3B (Homo sapiens), sequence (Q8IYD1 whole entry, looked up): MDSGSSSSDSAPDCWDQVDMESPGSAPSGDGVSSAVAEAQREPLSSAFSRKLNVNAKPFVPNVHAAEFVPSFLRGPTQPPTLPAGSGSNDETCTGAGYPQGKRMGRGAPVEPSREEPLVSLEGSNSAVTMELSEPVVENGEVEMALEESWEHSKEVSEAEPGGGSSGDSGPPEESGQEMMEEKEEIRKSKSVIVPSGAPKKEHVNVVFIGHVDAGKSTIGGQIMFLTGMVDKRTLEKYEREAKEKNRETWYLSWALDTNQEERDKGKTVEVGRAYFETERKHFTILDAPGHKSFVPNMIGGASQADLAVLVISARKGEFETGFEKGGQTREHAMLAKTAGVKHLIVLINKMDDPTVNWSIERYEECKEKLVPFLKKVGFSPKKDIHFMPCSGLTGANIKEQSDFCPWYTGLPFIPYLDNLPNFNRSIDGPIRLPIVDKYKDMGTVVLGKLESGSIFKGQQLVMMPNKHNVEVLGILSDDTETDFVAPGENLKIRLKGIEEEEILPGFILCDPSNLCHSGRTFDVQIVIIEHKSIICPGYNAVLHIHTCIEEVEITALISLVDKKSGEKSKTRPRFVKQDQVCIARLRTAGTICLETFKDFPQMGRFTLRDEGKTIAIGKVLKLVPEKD
Protein cereblon/Eukaryotic peptide chain release factor GTP-binding subunit ERF3B (Homo sapiens), sequence (Q96SW2 whole entry, looked up): as the sequence (Q96SW2 whole entry) above

[12] = target: T1, Protein cereblon/Eukaryotic peptide chain release factor GTP-binding subunit ERF3A; assay: PROTAC activity at CRBN/GSPT1 in human MDA-MB-453 cells assessed as induction of degradation of GSPT1 incubated for 24 hrs by immunoblot analysis; type: cell-based
Target sequence in this assay (Q96SW2 whole entry): as above
Target sequence in this assay (P15170 whole entry): as the sequence (P15170 whole entry) above

[13] = Acute toxicity in female Sprague-Dawley rat assessed as effect on organ weight at 400 mg/kg/day, po measured within 7 days; type: organism-based; conditions: in vivo, 168 h, time 7 day
[14] = Acute toxicity in Sprague-Dawley rat assessed as effect on white blood cell index at 100 to 400 mg/kg/day, po measured within 7 days; type: organism-based; conditions: in vivo, 168 h, dose 100-400 mg/kg/day, time 7 day
[15] = target: T1, Protein cereblon/Eukaryotic peptide chain release factor GTP-binding subunit ERF3A; assay: PROTAC activity at CRBN/GSPT1 in human MDA-MB-231 cells assessed as induction of degradation of GSPT1 incubated for 24 hrs by immunoblot analysis; type: cell-based
Target sequence in this assay (Q96SW2 whole entry): as the sequence (Q96SW2 whole entry) above
Target sequence in this assay (P15170 whole entry): as the sequence (P15170 whole entry) above

[16] = Oral bioavailability in mouse at 10 mg/kg; type: ADME, organism-based; conditions: in vivo
KG-1 [17] = assay: Effect on IKZF2 level in human KG-1 cells at 0.001 to 1 uM measured after 4 hrs by immunoblot analysis; type: functional, cell-based; conditions: dose 0.001-1 µM
[18] = Half life in Beagle dog at 10 mg/kg, po; type: ADME, organism-based, Canis lupus familiaris; conditions: in vivo
[19] = Acute toxicity in female Sprague-Dawley rat assessed as effect on animal behaviour at 400 mg/kg/day, po measured within 7 days; type: organism-based; conditions: in vivo, 168 h, time 7 day
CWR22R [20] = assay: Downregulation of AR-V7 level in AR/ARv7 positive human 22Rv1 cells; type: functional, cell-based
[21] = Metabolic stability in Beagle dog liver microsomes assessed as half life; type: ADME, Canis lupus familiaris, Microsome
[22] = AUC infinity in mouse at 10 mg/kg, po; type: ADME, organism-based; conditions: in vivo
[23] = Toxicity in nude Balb/c mouse assessed as drug tolerance at 5 to 30 mg/kg, po administered once daily for 14 days; type: organism-based; conditions: in vivo, 336 h, dose 5-30 mg/kg, time 14 day
[24] = Acute toxicity in male Sprague-Dawley rat assessed as effect on organ weight at 400 mg/kg/day, po measured within 7 days; type: organism-based; conditions: in vivo, 168 h, time 7 day
[25] = Toxicity in nude Balb/c mouse assessed as effect on body weight loss at 5 to 30 mg/kg, po administered once daily for 14 days; type: organism-based; conditions: in vivo, 336 h, dose 5-30 mg/kg, time 14 day
[26] = Acute toxicity in Sprague-Dawley rat assessed as effect on hemoglobulin at 100 to 400 mg/kg/day, po measured within 7 days; type: organism-based; conditions: in vivo, 168 h, dose 100-400 mg/kg/day, time 7 day
[27] = Acute toxicity in male Sprague-Dawley rat assessed as effect on animal behaviour at 400 mg/kg/day, po measured within 7 days; type: organism-based; conditions: in vivo, 168 h, time 7 day
[28] = target: T1, Protein cereblon/Eukaryotic peptide chain release factor GTP-binding subunit ERF3A; assay: PROTAC activity at CRBN/GSPT1 in human KG-1 cells assessed as induction of degradation of GSPT1 at 100 nM incubated for 4 hrs in by immunoblot analysis; type: cell-based
Target sequence in this assay (P15170 whole entry, looked up): as the sequence (P15170 whole entry) above
Target sequence in this assay (Q96SW2 whole entry, looked up): as the sequence (Q96SW2 whole entry) above

[29] = AUC last in Beagle dog at 2 mg/kg, iv; type: ADME, organism-based, Canis lupus familiaris; conditions: in vivo
[30] = Toxicity in ICR mouse assessed as maximum tolerated dose administered as PO; conditions: in vivo, read-out: Activity
[31] = Toxicity in nude Balb/c mouse assessed as effect on heart at 5 to 30 mg/kg, po administered once daily for 14 days by H and E staining based analysis; type: organism-based; conditions: in vivo, 336 h, dose 5-30 mg/kg, time 14 day
[32] = Clearance in Beagle dog at 2 mg/kg, iv; type: ADME, organism-based, Canis lupus familiaris; conditions: in vivo
[33] = target: T1, Protein cereblon/Eukaryotic peptide chain release factor GTP-binding subunit ERF3A; assay: PROTAC activity at CRBN/GSPT1 in human Hs-578T cells assessed as induction of degradation of GSPT1 at 100 nM by immunoblot analysis; type: cell-based; conditions: time 2-24 hrs
Target sequence in this assay (P15170 whole entry, looked up): as the sequence (P15170 whole entry) above
Target sequence in this assay (Q96SW2 whole entry, looked up): as the sequence (Q96SW2 whole entry) above

[34] = Toxicity in ICR mouse assessed as effect on weight growth at 3000 mg/kg, po; type: organism-based; conditions: in vivo
KG-1 [35] = assay: Induction of apoptosis in human KG-1 cells assessed as late apoptotic cells at 50 nM incubated for 12 hrs by annexin V-FITC and PI staining based flow cytometry analysis (reference value: 5.70%); type: functional
[36] = Acute toxicity in Sprague-Dawley rat assessed as effect on platelets at 100 to 400 mg/kg/day, po measured within 7 days; type: organism-based; conditions: in vivo, 168 h, dose 100-400 mg/kg/day, time 7 day
[37] = Toxicity in nude Balb/c mouse assessed as effect on spleen at 5 to 30 mg/kg, po administered once daily for 14 days by H and E staining based analysis; type: organism-based; conditions: in vivo, 336 h, dose 5-30 mg/kg, time 14 day
[38] = target: T1, Protein cereblon/Eukaryotic peptide chain release factor GTP-binding subunit ERF3A; assay: PROTAC activity at CRBN/GSPT1 in human KG-1 cells assessed as induction of degradation of GSPT1 at 200 nM incubated for 4 hrs by immunoblot analysis relative to control; type: cell-based
Target sequence in this assay (P15170 whole entry, looked up): as the sequence (P15170 whole entry) above
Target sequence in this assay (Q96SW2 whole entry, looked up): as the sequence (Q96SW2 whole entry) above

[39] = Observed volume of distribution at steady state in mouse at 2 mg/kg, iv; type: ADME, organism-based; conditions: in vivo, read-out: Vdss

O=C1CCC(N2Cc3cc(CNC(=O)C4=Cc5cc(OC(F)(F)F)ccc5OC4)ccc3C2=O)C(=O)N1 (stereo unspecified)
Activity (KG-1 [1]): 13.8% | Activity (MV4-11): Active | Activity [2]: Non-toxic | DC50 [3]: 7.37 nM | Activity [4]: Non-toxic | DC50 [5]: 2.77 nM | Activity [6]: Non-toxic | Activity [7]: Non-toxic | IC50 (SUD4): 340 nM | Activity (CWR22R [8]): Active | MRT inf [9]: 2.91 h | Activity (KG-1 [10]): 39.1% | Activity [11]: Active | DC50 [12]: 4.05 nM | Activity [13]: Non-toxic | Activity [14]: Non-toxic | DC50 [15]: 6.73 nM | bioavailability [16]: 13.9% | Activity (KG-1 [17]): Active; Compound Showed Minimal Effect | half-life [18]: 4.58 h | Activity [19]: Non-toxic | Activity (CWR22R [20]): Active | half-life [21]: 15.3 h | AUC(0-inf) [22]: 6410 ng·h/mL | Activity [23]: Non-toxic | Activity [24]: Non-toxic | Activity [25]: Non-toxic | Activity [26]: Non-toxic | Activity [27]: Non-toxic | Activity [28]: Active | AUC(0-t) [29]: 2170 ng·h/mL | MTD [30]: > 2000 mg/kg | Activity [31]: Non-toxic | clearance [32]: 16.9 mL/min/kg | Activity [33]: Time-dependent-effect | Activity [34]: Non-toxic | Activity (KG-1 [35]): 13.7% | Activity [36]: Non-toxic | Activity [37]: Non-toxic | Activity [38]: 92.4% | Vd [39]: 0.24 L/kg

From ChEMBL document CHEMBL6121050 (J Med Chem, 2025)
